# Experimental data as given in ChEMBL document CHEMBL5233283, “Indole derivatives as tubulin polymerization inhibitors for the development of promising anticancer agents” (Bioorg Med Chem, 2021).
# Assays:
# NCI-H460 = assay: Cytotoxicity against human NCI-H460 cells assessed as cell growth inhibition; type: functional, cell-based
# HT-29 = assay: Cytotoxicity against human HT-29 cells assessed as inhibition of cell growth; type: functional, cell-based
# KB = assay: Cytotoxicity against human KB cells assessed as cell growth inhibition; type: functional, cell-based
# MKN-45 = assay: Cytotoxicity against human MKN-45 cells assessed as cell growth inhibition; type: functional, cell-based
# MCF7 = assay: Cytotoxicity against human MCF7 cells assessed as inhibition of cell growth; type: functional, cell-based
# MDA-MB-231 = assay: Cytotoxicity against human MDA-MB-231 cells assessed as inhibition of cell growth; type: functional, cell-based
# A549 = assay: cells; settings: Homo sapiens
# Description: Cytotoxicity against human A549 cells assessed as inhibition of cell growth
# HepG2 = assay: Cytotoxicity against human HepG2 cells assessed as inhibition of cell growth; type: functional, cell-based
# HeLa = assay: Cytotoxicity against human HeLa cells assessed as inhibition of cell growth; type: functional, cell-based
# [1] = Cytotoxicity against human […] cells assessed as inhibition of cell growth; type: functional, cell-based
# HCT-116 = assay: Cytotoxicity against human HCT-116 cells assessed as inhibition of cell growth; type: functional, cell-based
# Ishikawa = assay: Cytotoxicity against human Ishikawa cells assessed as inhibition of cell growth; type: functional, cell-based
# NCI/ADR-RES = assay: Cytotoxicity against human NCI-ADR-RES cells assessed as inhibition of cell growth; type: functional, cell-based
# PC-3 = assay: Cytotoxicity against human PC-3 cells assessed as inhibition of cell growth; type: functional, cell-based
# [2] = Cytotoxicity against human CL1-5 cells assessed as inhibition of cell growth; type: functional, cell-based
# AGS = assay: Cytotoxicity against human AGS cells assessed as inhibition of cell growth; type: functional, cell-based
# SH-SY5Y = assay: Cytotoxicity against human SH-SY5Y cells assessed as cell growth inhibition; type: functional, cell-based
# [3] = Cytotoxicity against human Neural progenitor cells assessed as cell growth inhibition; type: functional, cell-based
# [4] = Cytotoxicity against human SCC-29B cells assessed as inhibition of cell growth; type: functional
# B16-F10 = assay: Cytotoxicity against mouse B16-F10 cells assessed as cell growth inhibition; type: functional, cell-based
# PA-1 = assay: Cytotoxicity against human PA-1 cells assessed as inhibition of cell growth; type: functional, cell-based
# RKO = assay: Cytotoxicity against human RKO cells assessed as inhibition of cell growth; type: functional, cell-based
SMILES,IC50 (A549),IC50 (MCF7),IC50 (HepG2),IC50 (HeLa),further results
COc1ccc(-n2ccc3cc(OC)c(OC)c(OC)c32)cc1O,,,,,IC50 (NCI-H460): 12.9 nM; IC50 (HT-29): 10.2 nM; IC50 (KB): 13.7 nM; IC50 (MKN-45): 11.1 nM
O=C1Nc2cc(Cl)ccc2/C1=C\c1c(-c2ccc(F)cc2)nc2ccccn12,,,,,GI50 (MCF7): 430 nM; GI50 (MDA-MB-231): 950 nM
N#Cc1c(-c2ccc(F)cc2Cl)cc(-c2c[nH]c3ccccc23)n2ccnc12,570 nM,,,,IC50 (NCI-H460): 50 nM; IC50 (HT-29): 20 nM; IC50 (MKN-45): 140 nM
O=C(N/N=C/c1ccc(C(F)(F)F)cc1)c1[nH]c2ccc(Cl)cc2c1-c1ccccc1,,420 nM,,,
COc1cc(C2=CN(C(N)=O)C(c3cn(C)c4ccc(Br)cc34)C2)cc(OC)c1OC (stereo unspecified),260 nM,290 nM,310 nM,210 nM,
COc1cc(/C=N/NC(=O)c2cn(Cc3ccccc3)c3ccccc23)cc(OC)c1OC,80 nM,640 nM,630 nM,,IC50 [1]: 35600 nM
COc1cc(/C=C/c2ncc([N+](=O)[O-])n2CCOC(=O)c2c[nH]c3ccccc23)cc(OC)c1OC,35 nM,30 nM,40 nM,,
Oc1cccc(-n2cc(CSc3c[nH]c4ccccc34)nn2)c1,,2370 nM,,,
COc1ccc(C(=O)/C=C/c2ccc3c(ccn3C)c2)c2ccccc12,,820 nM,650 nM,,IC50 (HCT-116): 1130 nM
COC(=O)c1[nH]c2cc(OC)ccc2c1/C=C/C(=O)c1cc(OC)c(OC)c(OC)c1,,170 nM,,370 nM,IC50 (HT-29): 160 nM
COC(=O)c1c(Nc2cc(OC)c(OC)c(OC)c2)c2ccc(OC)cc2n1C,,110 nM,,110 nM,IC50 (HT-29): 110 nM
O=C(CC#Cc1ccccc1)Oc1ccc2[nH]ccc2c1,,3800 nM,,3200 nM,IC50 (Ishikawa): 10100 nM; IC50 (MDA-MB-231): 9900 nM
COc1ccc(S(=O)(=O)Nc2cccc3cc(-c4ccccc4)[nH]c23)cc1,1430 nM,,,200 nM,IC50 (HT-29): 130 nM; IC50 (NCI/ADR-RES): 150 nM; IC50 (PC-3): 110 nM; IC50 [2]: 450 nM; IC50 (AGS): 250 nM
COC(=O)c1[nH]c2ccc(OC)cc2c1Nc1cc(OC)c(OC)c(OC)c1,,110 nM,,110 nM,IC50 (HT-29): 110 nM
CC(=O)c1ccc(C2=C(c3c(C)[nH]c4ccccc34)C(=O)N(C)C2=O)cc1,4970 nM,,,,IC50 (SH-SY5Y): 8480 nM; IC50 [3]: 1310 nM
O=C(O)c1cccc(-n2cc(CSc3c[nH]c4ccccc34)nn2)c1,,3520 nM,,,
COc1ccc(C(=O)/C=C/c2cn(C)c3ccc(C(=O)c4cc(OC)c(OC)c(OC)c4)cc23)cc1OC,,,,,GI50 [4]: 960 nM
O=C(CC(c1ccc(F)cc1)c1c(-c2ccccc2)[nH]c2ccccc12)c1ccccc1 (stereo unspecified),,10000 nM,,,IC50 (B16-F10): 10000 nM
N#Cc1ccc(/C=N/NC(=O)c2[nH]c3ccc(Cl)cc3c2-c2ccccc2)cc1,,170 nM,,,
COc1cc(CSc2nnc(-c3cn(C)c4ccccc34)n2-c2ccccc2)cc(OC)c1OC,300 nM,380 nM,300 nM,150 nM,
O=C(N/N=C/c1c[nH]c2ccccc12)c1c[nH]c2ccccc12,,5250 nM,29700 nM,1500 nM,IC50 (PA-1): 24700 nM; IC50 (MDA-MB-231): 8000 nM
O=C(CC(c1ccccc1)c1c(-c2ccccc2)[nH]c2ccccc12)c1ccc(F)cc1 (stereo unspecified),,10000 nM,,,IC50 (B16-F10): 10000 nM
COc1cc(C(=O)c2cccc3[nH]ccc23)cc([Se]C)c1OC,4 nM,,4 nM,4 nM,IC50 (HCT-116): 4 nM; IC50 (MDA-MB-231): 4 nM; IC50 (RKO): 4 nM
